From US20200253211A1, “PHOTODYNAMIC INHIBITION OF MICROBIAL PATHOGENS IN PLANTS” (SUNCOR ENERGY INC, priority 2017, published 2020)

Key:
Assay type in all cases: cell-based
[1] = test system: Botrytis cinerea mycelia; experiment: Photodynamic inhibition of Botrytis cinerea mycelia, percentage of dead samples after 7 days on agar
Method: (§1) In the experiments, Botrytis cinerea mycelia were grown in liquid medium for 48 hours. Small spheres of the mycelia (average diameter 2 mm) were incubated for 100 minutes with Mg-Chlorophyllin with or without 5 mM Disodium-EDTA. Samples were illuminated with 395 nm (fluence 106.6 J cm^−2) for 120 minutes and the radial growth of mycelial patches after 7 days on agar medium was measured. A sample was considered dead, if there was no growth observable after 7 days on agar plates.
as §1, with “mM EDTA (calcium or disodium).” for “mM Disodium-EDTA.”, “120 min” for “120 minutes”
as §1, with “without Baypure DS100” for “without 5 mM Disodium-EDTA.”, “120 min” for “120 minutes”
The protocol for the PDI of B. cinerea was as follows (for experiments 3 and 4 described above): • Grow B. cinerea on malt-peptone-agar for some days. • Transfer spores of B. cinerea to liquid malt-peptone medium. • Incubate for 2-3 days at 26° C. under constant agitation. • Transfer the grown mycelia (spheres of mycelia, approximately 2 mm diameter) to 24 well plates. • Add 500 μl of the PS to the well. • Incubate under agitation for 100 minutes in the dark. • Illuminate under agitation for 120 minutes. • Transfer the treated mycelia to malt-peptone-agar plates and incubate for one week at room temperature. • Evaluate by counting of dead samples.

[2] = test system: Erwinia amylovora; experiment: Photodynamic inactivation of Erwinia amylovora grown in liquid medium, CFU counted on plates; details: Table 1
Method: E. amylovora is grown in liquid medium. Samples are incubated for 30 min with 100 μM of Mg-Chlorophyllin with or without 5 mM of Disodium-EDTA, and then illuminated with 395 nm (fluence 26.6 J cm^−2) for 30 mins. CFU of the bacteria is counted on the plates.
In the experiment, E. amylovora were grown in liquid medium. Samples were incubated for 30 min with 100 μM of Mg-Chlorophyllin with or without Chelators, and then illuminated with 395 nm (fluence 26.6 J cm^−2) for 30 mins. CFU of the bacteria was counted on the plates.

[3] = test system: Alternaria solani mycelia; experiment: Photodynamic inhibition of Alternaria solani mycelia, percentage of dead samples after 7 days on agar
Method: (§2) In the experiments, Alternaria solani mycelia were grown in liquid medium for 24 hours. Small spheres of the mycelia (average diameter 2 mm) were incubated for 100 minutes with 100 μM of Mg-Chlorophyllin with 0 to 5 mM of Disodium-EDTA. Samples were illuminated with 395 nm (fluence 106.6 J cm^−2) for 120 mins and the radial growth of mycelial patches after 7 days on agar medium was measured. A sample was considered dead, if there was no growth observable after 7 days on agar plates.
as §2, with “Chlorin E6” for “100 μM of Mg-Chlorophyllin”, “or without” for “0 to”, “disodium-EDTA.” for “Disodium-EDTA.”
The protocol for the PDI of A. solani was as follows (for Experiment 2 and 5): • Grow A. solani on tomato-agar for some days. • Transfer parts of the growing mycelium form the edge of the A. solani (no conidia) to liquid tomato medium. • Incubate overnight at 26° C. under constant agitation. • Transfer the grown mycelia (spheres of mycelia, approximately 2 mm in diameter) to 24 well plates. • Add 500 microlitres of the PS to the well (PBS for the Co and light only controls). • Incubate under agitation for 100 minutes. • Illuminate under agitation for 120 minutes. • Transfer the treated mycelia to tomato-agar plates and incubate for one week at room temperature. • Evaluate by counting of dead samples.

| Structure (SMILES) | dead % ([1]; Table 3, EDTA 5 mM alone, in dark) | dead % ([1]; Table 3, EDTA 5 mM alone, with light) | dead % ([1]; Table 4, EDTA-Na 5 mM alone, with light) | Relative inactivation, CFU ([2]; EDTA 5 mM alone, in light) | dead % ([3]; Table 2, EDTA 5 mM alone, in light) | dead % ([3]; Table 2, EDTA 5 mM alone, no light) | dead % ([3]; Table 2, EDTA 50 mM alone, in light) | dead % ([3]; Table 2, EDTA 50 mM alone, no light) | dead % ([3]; Table 2, EDTA 100 mM alone, in light) | dead % ([3]; Table 2, EDTA 100 mM alone, no light) | dead % ([3]; Table 2, EDTA 500 mM alone, in light) | dead % ([3]; Table 2, EDTA 500 mM alone, no light) | dead % ([3]; Table 5, light, 5 mM Na-EDTA alone) | dead % ([3]; Table 5, no light, 5 mM Na-EDTA alone) | dead % ([1]; Table 3, Mg-Chlorophyllin 10 μM alone, in light) | dead % ([1]; Table 3, Mg-Chlorophyllin 100 μM alone, in light) | dead % ([1]; Table 4, Mg-Chlorophyllin 100 μM alone, in light) | Percentage of dead samples [%] ([1]; Table 27, MgChln 100 μM, with light) | Relative inactivation, CFU ([2]; Mg-Chlorophyllin 100 μM without EDTA, in light (395 nm, 30 mins)) | dead % ([3]; Table 2, Mg-Chlorophyllin 100 μM without EDTA, in light) |
| --- | --- | --- | --- | --- | --- | --- | --- | --- | --- | --- | --- | --- | --- | --- | --- | --- | --- | --- | --- | --- |
| O=C(O)CN(CCN(CC(=O)O)CC(=O)O)CC(=O)O [EDTA, disodium EDTA] | 0% | 0% | 0% | 11.1 | 0% | 0% | 0% | 0% | 0% | 11.1% | 0% | 11.1% | 0% | 0% | – | – | – | – | – | – |
| C=Cc1c(C)c2cc3nc(c(CC(=O)[O-])c4[n-]c(cc5nc(cc1[n-]2)C(C)=C5CC)c(C)c4C(=O)[O-])C(CCC(=O)[O-])C3C.[Mg+2].[Na+].[Na+].[Na+] (centres unmarked) [Mg-Chlorophyllin, Mg-chlorophyllin] | – | – | – | – | – | – | – | – | – | – | – | – | – | – | 0% | 0% | 0% | 0% | 1.9 | 11.5% |
